In patent US9393216B2, “Vaginal matrices: nanofibers for contraception and prevention of HIV infection” (priority 2012, dated 2016):
Where two headings read alike, the source gives them in different places.

Assays:
TZM-bl cells = assay: Cytotoxicity in TZM-bl cells (CellTiter Blue); assay type: cell-based; conditions: for Cytotoxicity to TZM-bl cells: 48 h exposure to 24 h eluates of PVA fabrics, 20 wt.% theoretical loading
Description: TZM-bl cells and HIV-1 BaL isolate are obtained. TZM-bl cells are a HeLa derived cell line that express CD4, CCR5 and CXCR4. Cells re plated in a black 96-well plate at a density of 5,000 cells/well (Corning, Corning, N.Y.) and maintained in Dulbecco's Modified Eagle Medium (DMEM) (Gibco Life Technologies) with 10% fetal bovine serum (Hyclone), 1% 100× penicillin/streptomycin (Invitrogen) and 1% 200 mM L-glutamine. […] Fibers were sterilized by UV irradiation for one hour per side prior to use. Treatments were added at a volume of 50 μL. Cytotoxicity is analyzed using the CellTiter Blue assay (Promega) to assess TZM-bl cell viability after 48 h of exposure to drug eluates from fiber release in cDMEM (24 h release, triplicate wells for each sample). Percent viability is calculated by normalizing to the average of media control wells (n=9). […] Positive control (12.5% DMSO) results in 4.6% viability. Data represents triplicate wells with error bars indicating standard deviation.

[1] = Drug stability in fibers stored at room temperature; assay type: physicochemical; conditions: PLLA/PEO meshes, at least five months
Description: Plates were then digitized using a scanner. Drug loading and stability is measured using fibers stored at room temperature (19-22° C.) for at least five months. […] UV-HPLC is used to quantify amount of drug in samples as previously described. Encapsulation efficiency is calculated as the amount of drug in drug-loaded fibers relative to the amount of drug detected in dissolved blank fibers spiked at 1% (wt/wt) drug loading.

HIV-1 BaL [2] = assay: HIV-1 BaL infection inhibition assay in TZM-bl cells (luciferase); assay type: cell-based
Description: TZM-bl cells and HIV-1 BaL isolate are obtained. TZM-bl cells are a HeLa derived cell line that express CD4, CCR5 and CXCR4. Cells re plated in a black 96-well plate at a density of 5,000 cells/well (Corning, Corning, N.Y.) and maintained in Dulbecco's Modified Eagle Medium (DMEM) (Gibco Life Technologies) with 10% fetal bovine serum (Hyclone), 1% 100× penicillin/streptomycin (Invitrogen) and 1% 200 mM L-glutamine. […] Fibers were sterilized by UV irradiation for one hour per side prior to use. Treatments were added at a volume of 50 μL. […] Percent viability is calculated by normalizing to the average of media control wells (n=9). For composite fabrics, the drug concentration shown applies to both the amount of LNG and of TFV (1:1 ratio). […] Data represents triplicate wells with error bars indicating standard deviation.
Inhibition of infectious activity is quantified by measuring luminescence on a plate reader (Tecan). IC50 values of drug compounds re estimated using sigmoidal regression in Graphpad Prism, version 5.0.
TZM-bl cells and HIV-1 BaL isolate re obtained from the NIH AIDS Research and Reference Reagent Program, Division of AIDS, NIAID, NIH (http://www.aidsreagent.org/). TZM-bL cells, a derived HeLa cell line that expresses CD4, CCR5, and CXCR4, were added to black 96-well plates (Corning, Corning, N.Y.) with Dulbecco's Modified Eagle Medium (DMEM) (Gibco Life Technologies) with 10% fetal bovine serum (Hyclone), 1% 100× penicillin/streptomycin (Invitrogen), and 1% 200 mM L-glutamine (Invitrogen) with […] at a density of 5,000 cells/well. […] Fibers re sterilized by UV irradiation for 2 h (1 h per side). Treatments were added in […]. For the HIV-infectious inhibition assay, […] (240 TCID/well) are added to wells 1 h after drug treatment. […] Infectious activity is quantified by measuring luminescence on a plate reader (Tecan).
TZM-bl cells and HIV-1 BaL isolate re obtained from the NIH AIDS Research and Reference Reagent Program, Division of AIDS, NIAID, NIH (http://www.aidsreagent.org/). TZM-bL cells, a derived HeLa cell line that expresses CD4, CCR5, and CXCR4, are added to black 96-well plates (Corning, Corning, N.Y.) with Dulbecco's Modified Eagle Medium (DMEM) (Gibco Life Technologies) with 10% fetal bovine serum (Hyclone), 1% 100× penicillin/streptomycin (Invitrogen), and 1% 200 mM L-glutamine (Invitrogen) with 50 μL/well at a density of 5,000 cells/well. […] Treatments are diluted serially and randomly assigned to treatments A-E. A second operator, blinded to the identity of the treatments, added each in 50 μL volumes into duplicate wells (n=1 was used for PVP (D) and PEO Tween 20 (E) formulations only due to space limitations on the 96-well plate). 100 μL of HIV-BaL (240 TCID/well) was added to wells 1 h after drug treatment. […] Infectious activity was quantified by measuring luminescence on a plate reader (Tecan).

human swim-out sperm = assay: Sperm motility assay; assay type: cell-based; conditions: for Inhibition of sperm function: motility of purified (swim-out) human sperm
Description: (§1) Sperm is obtained from two donors for sperm motility experiments. A third donor is recruited for sperm viability assays with glycerol monolaurate. Swim out sperm are obtained as described previously. Briefly, one can place 0.5 mL aliquots of semen below 3 mL of Ham's F-10 media (Sigma-Aldrich) with 0.5% human serum albumin (Sigma-Aldrich) for 75 min in 5% CO2 and 37° C. The aspirate, enriched for motile sperm, was centrifuged at 300 RCF for five min and resuspended in fresh Ham's F-10 to a concentration of 20×10^6 sperm/mL. The effect of drug dilutions on sperm motility are performed both in whole semen and in swimout sperm by adding […] of sperm and drugs to a slide and observing sperm motility with phase contrast either at 200× and 37° C. (ECLIPSE Ti, Nikon), or by adding 200 […] and quantifying sperm motility with computer aided motility analysis for up to 7 min after the addition of drug. Multiple media only controls are run to ensure that any observed change in motility was minimally dependent upon time since ejaculation. Sperm viability was measured by adding 20 […] of Trypan blue (Sigma-Aldrich) and counting 100 live or dead sperm based on head staining after a 10 min incubation using brightfield microscopy.

[3] = In vitro release of TFV and LNG from PVA fabrics in 1:1 isopropanol:water; assay type: physicochemical
Description: Drug loading is analyzed by dissolving approximately 5 mg of fibers in 20 mL of a mixture of 1:1 isopropanol:water in a glass vial. Triplicate samples are allowed to dissolve overnight at 37° C. on a rotational shaker and concentration is quantified using a Shimadzu Prominence LC20AD UV-HPLC system. A Phenomenex Luna C18 column (5 μM, 250×4.6 mm) and LC Solutions software are used to analyze samples.
A method for dual analysis of TFV and LNG is developed using the following gradient method using mobile phase A (0.1% formic acid in water) and mobile phase B (acetonitrile). The run consisted of 0-5 minutes 72% mobile phase A, 5-10 minutes ramp to 15% mobile phase A, 10-20 minutes 15% mobile phase A, 20-25 minutes ramp to 72% mobile phase A, 25-30 minutes 72% mobile phase A. The total method time is 30 minutes, with an oven temperature of 30° C., a flow rate of 1 mL/min, and an injection volume of 20 μL. LNG is detected at 238 nm at a retention time of 18.5 minutes. TFV is detected at 259 nm at a retention time of 2.3 minutes.
In vitro release was analyzed in a 1:1 solution of isopropanol:water due to the limited solubility of LNG in water. Sink conditions were maintained throughout the study for both drugs in the release media. Approximately 5 mg of fibers were prepared in triplicate and an appropriate volume of release media was added to maintain sink conditions of 2.6 mg/mL LNG as has been reported. Samples were incubated at 37° C. on a rotational shaker, and 200 μL samples of release media was taken as indicated. Fresh media was added to replace sample volume at each timepoint.

HIV-1 BaL [4] = conditions: free (unformulated) drug; as reported previously; read-out: IC50 of free TFV; cited from earlier work
[5] = Cumulative release of TFV from PVA fiber meshes at pH 4.3 and pH 7.4; assay type: physicochemical; conditions: pH 4.3 and 7.4, small and large scale
Description: FIG. 26. Burst release of TFV within 5 minutes at pH 4.3 and 7.4 is similar for meshes electrospun on small scale and large scales. Graphs display cumulative release of TFV in pH 4.3 citrate buffer (a,c) or pH 7.4 PBS (b,d) for fibers spun on small scale versus large scale instruments for pH adjusted and unadjusted solutions.

[6] = system: human sperm in whole semen; assay: Sperm viability assay (Trypan blue); assay type: cell-based
Description: as §1

[7] = DPV release from PVP and EC fibers; assay type: physicochemical
HIV = conditions: cited from earlier work
[8] = Human immunodeficiency virus 1, BAL, TZM-bl, read-out: Final ARV drug concentration at IC50, drugs released from EC fibers (sustained)
[9] = Human immunodeficiency virus 1, BAL, TZM-bl, read-out: Final ARV drug concentration at IC50, drugs released from PVA fibers (pericoital)
[10] = single-drug PVA fibers, calculated for assumed 500 mg of fabric

Molecule: Cc1cn([C@H]2C[C@H](N=[N+]=[N-])[C@@H](CO)O2)c(=O)[nH]c1=O [AZT, 3′-azido-3′-deoxythymidine]
- Toxicity to TZM-bL cells (TZM-bl cells; compared with media controls): nontoxic
- Initially-loaded drug detected in stored fiber meshes [1]: 0.95%
- IC50 (HIV-1 BaL [2]; Human immunodeficiency virus 1, BAL, TZM-bl, read-out: IC50, drug eluted from fibers): 84 nM
- IC50 (HIV-1 BaL [2]; Human immunodeficiency virus 1, BAL, TZM-bl, read-out: IC50, unformulated drug): 120 nM

Molecule: C[S+](C)[O-] [DMSO]
- Viability, positive control (TZM-bl cells): 4.6%

Molecule: Cc1nnc(C(=O)NC(C)(C)c2nc(C(=O)NCc3ccc(F)cc3)c(O)c(=O)n2C)o1 [RAL, raltegravir]
- IC50 (HIV-1 BaL [2]; [8]): 3.8 nM
- IC50 (HIV-1 BaL [2]; [9]): 1.2 nM

Molecule: Cc1cc(C#N)cc(C)c1Oc1nc(Nc2ccc(C#N)cc2)nc(N)c1Br [ETR, etravirine]
- IC50 (HIV-1 BaL [2]; [8]): 2.7 nM
- IC50 (HIV-1 BaL [2]; [9]): 0.7 nM

Molecule: methyl-β-cyclodextrin [MBCD]
- Inhibition of sperm function (human swim-out sperm): ineffective

Molecule: C[C@H](Cn1cnc2c(N)ncnc21)OCP(=O)(O)O [TFV, tenofovir]
- Cumulative mass of drug released after 15 minutes [3, 10]: ~40 mg
- Cumulative mass of drug released after 60 minutes [3, 10]: ~60 mg
- Time to 100% TFV release ([3]; single-drug or 1:1 TFV:LNG PVA fabrics, 20 wt.% theoretical loading): ≤ 30 min
- IC50 (HIV-1 BaL [4]): 1800 nM
- Cytotoxicity to TZM-bl cells (TZM-bl cells): not
- Time of burst release of TFV [5]: ≤ 5 min

Molecule: ferrous D-gluconate [FeGluc]
- Inhibition of sperm function (human swim-out sperm): ineffective

Molecule: C#C[C@]1(O)CC[C@H]2[C@@H]3CCC4=CC(=O)CC[C@@H]4[C@H]3CC[C@@]21CC [LNG, levonorgestrel]
- Cytotoxicity to TZM-bl cells (TZM-bl cells): induced by high concentrations

Molecule: CCCCCCCCCCCC(=O)OCC(O)CO (centres unmarked) [GML, glycerol monolaurate]
- Concentrations that inhibited sperm motility (complete spermiostasis) (human swim-out sperm): 0.05-0.5 % (wt/vol)
- EC50, reduction of sperm motility (human swim-out sperm; at 2 min): 0.005 % wt/vol
- Lowest concentration with reduction in motility (human swim-out sperm; no complete spermiostasis): ≥ 0.00005 % (wt/vol)
- Reduction of sperm viability ([6]; 5% (wt/vol)): 33.1%
- Reduction of sperm viability ([6]; concentration not given): 19.6%

Molecule: Cc1cc(C)c(Nc2ccnc(Nc3ccc(C#N)cc3)n2)c(C)c1 [DPV, dapivirine]
- DPV release characteristics ([7]; from EC fibers): sustained release
- DPV release characteristics ([7]; from PVP fibers): burst-release
- Duration of prevention of localized and disseminated infection posttreatment (HIV): ≤ 6 days

Molecule: maraviroc [MVC]
- IC50 (HIV-1 BaL [2]; drugs released from EC fibers (sustained), read-out: Final ARV drug concentration at IC50): 4.2 nM
- IC50 (HIV-1 BaL [2]; drugs released from PVA fibers (pericoital), read-out: Final ARV drug concentration at IC50): 1.6 nM
- IC50 (HIV-1 BaL [2]; eluates released from PLLA/PEO fibers, read-out: IC50, drug eluted from fibers): 2.3 nM
- Globally shared best fit IC50 (HIV-1 BaL [2]; pure maraviroc and maraviroc released from PVP/PEO electrospun formulations): 6.96 ng/mL
- IC50 (HIV-1 BaL [2]; pure maraviroc and maraviroc released from PVP/PEO electrospun formulations, read-out: Globally shared best fit IC50): 13.5 nM
- IC50 (HIV-1 BaL [2]; unformulated, read-out: IC50, unformulated drug): 0.9 nM
